According to patent US20260327221A1, “INHIBITORS OF CYCLIC GMP-AMP SYNTHASE AND USES THEREOF” (Ventus Therapeutics U.S., Inc., priority 2023, published 2026):
Where two headings read alike, the source gives them in different places.

Target: hcGAS (Homo sapiens, UniProt Q8N884)
Test: hcGAS LCMS assay (direct measurement of cGAMP production by LC/MS)
Assay type: biochemical
Conditions: for cGAS potency relative to Compound 1: compared with Compound 1, from activity classes of Table D
Summary of the method: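 Enzyme, substrates (ATP, GTP) and compound incubated 4 h, then quenched with acetonitrile/water containing 0.15 uM 13C/15N-labeled cGAMP internal standard. cGAMP formed quantified directly by LC/MS on HILIC amide column; IC50 values reported in potency bins.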

[1] = 4 h incubation with enzyme and substrates, cGAMP production by LC/MS, class symbols, read-out: hcGAS LCMS IC50
[2] = hcGAS 0.5 nM, ATP 100 μM, GTP 100 μM, dsDNA 25 nM, pH 7.4, 4 h incubation, read-out: hcGAS inhibition IC50 (activity class, Table D)

Chain of hcGAS (Q8N884 whole entry): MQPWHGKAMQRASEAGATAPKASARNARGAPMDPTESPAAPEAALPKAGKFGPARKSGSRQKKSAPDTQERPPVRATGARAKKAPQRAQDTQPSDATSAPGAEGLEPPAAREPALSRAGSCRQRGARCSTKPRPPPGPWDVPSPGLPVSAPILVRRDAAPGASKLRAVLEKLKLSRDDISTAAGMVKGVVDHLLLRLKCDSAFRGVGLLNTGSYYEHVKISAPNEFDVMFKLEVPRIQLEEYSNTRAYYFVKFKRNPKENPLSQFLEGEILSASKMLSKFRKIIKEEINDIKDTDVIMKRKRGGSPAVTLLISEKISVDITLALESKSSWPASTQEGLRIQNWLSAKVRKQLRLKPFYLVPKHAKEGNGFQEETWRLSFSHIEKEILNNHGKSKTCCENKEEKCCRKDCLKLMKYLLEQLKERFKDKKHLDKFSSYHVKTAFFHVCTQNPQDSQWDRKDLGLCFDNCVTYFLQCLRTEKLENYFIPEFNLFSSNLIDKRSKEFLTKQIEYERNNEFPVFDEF

Row | Compound | IC50 [1] [nM] | cGAS potency relative to Compound 1 | IC50 [2] [nM]
1 | COC[C@H](C)Oc1c(-c2c(OC)cccc2OC)cc(C(=O)Nc2nnc(-n3nccc3N)s2)oc1=O [Compound 47A, (S)—N-(5-(5-amino-1H-pyrazol-1-yl)-1,3,4-thiadiazol-2-yl)-4-(2,6-dimethoxyphenyl)-3-((1-methoxypropan-2-yl)oxy)-2-oxo-2H-pyran-6-carboxamide] | 1 to 5 | – | –
2 | COCCOc1c(-c2c(C#N)cccc2CO)cc(C(=O)Nc2nnc(-n3nccc3N)s2)oc1=O [Compound 48, N-(5-(5-amino-1H-pyrazol-1-yl)-1,3,4-thiadiazol-2-yl)-4-(2-cyano-6-(hydroxymethyl)phenyl)-3-(2-methoxyethoxy)-2-oxo-2H-pyran-6-carboxamide] | 0.5 to 1 | – | –
3 | COCCOc1c(-c2nc(OC)ccc2OC)cc(C(=O)Nc2nnc(-n3nccc3N)s2)oc1=O [Compound 49, N-(5-(5-amino-1H-pyrazol-1-yl)-1,3,4-thiadiazol-2-yl)-4-(3,6-dimethoxypyridin-2-yl)-3-(2-methoxyethoxy)-2-oxo-2H-pyran-6-carboxamide] | 1 to 5 | – | –
4 | COCCOc1c(-c2c(OC)cccc2OC)cc(C(=O)Nc2nnc(-c3ncsc3N)s2)oc1=O [Compound 51, N-(5-(5-aminothiazol-4-yl)-1,3,4-thiadiazol-2-yl)-4-(2,6-dimethoxyphenyl)-3-(2-methoxyethoxy)-2-oxo-2H-pyran-6-carboxamide] | 0.5 to 1 | – | –
5 | COc1cccc(OC)c1-c1cc(C(=O)Nc2nnc(-n3nccc3N)s2)oc(=O)c1OC[C@@H](C)OC [Compound 54, (R)-N-(5-(5-amino-1H-pyrazol-1-yl)-1,3,4-thiadiazol-2-yl)-4-(2,6-dimethoxyphenyl)-3-(2-methoxypropoxy)-2-oxo-2H-pyran-6-carboxamide] | 0.5 to 1 | – | –
6 | COCCOc1c(-c2ncc(Cl)cc2OC)cc(C(=O)Nc2nnc(-n3nccc3N)s2)oc1=O [Compound 58, N-(5-(5-amino-1H-pyrazol-1-yl)-1,3,4-thiadiazol-2-yl)-4-(5-chloro-3-methoxypyridin-2-yl)-3-(2-methoxyethoxy)-2-oxo-2H-pyran-6-carboxamide] | 0.5 to 1 | – | –
7 | COc1cccc(OC)c1-c1cc(C(=O)Nc2nnc(-n3nccc3N)s2)oc(=O)c1OCCC(C)(C)O [Compound 59, N-(5-(5-amino-1H-pyrazol-1-yl)-1,3,4-thiadiazol-2-yl)-4-(2,6-dimethoxyphenyl)-3-(3-hydroxy-3-methylbutoxy)-2-oxo-2H-pyran-6-carboxamide] | < 0.5 | – | –
8 | COCCOc1c(-c2ncc(OC)cc2OC)cc(C(=O)Nc2nnc(-n3nccc3N)s2)oc1=O [Compound 60, N-(5-(5-amino-1H-pyrazol-1-yl)-1,3,4-thiadiazol-2-yl)-4-(3,5-dimethoxypyridin-2-yl)-3-(2-methoxyethoxy)-2-oxo-2H-pyran-6-carboxamide] | 1 to 5 | – | –
9 | COc1cccnc1-c1cc(C(=O)Nc2nnc(-n3nccc3N)s2)oc(=O)c1OCCOC(F)F [Compound 61, N-(5-(5-amino-1H-pyrazol-1-yl)-1,3,4-thiadiazol-2-yl)-3-(2-(difluoromethoxy)ethoxy)-4-(3-methoxypyridin-2-yl)-2-oxo-2H-pyran-6-carboxamide] | 1 to 5 | – | –
10 | COC[C@H](CO)Oc1c(-c2c(OC)cccc2OC)cc(C(=O)Nc2nnc(-n3nccc3N)s2)oc1=O [Compound 62A*, (S)—N-(5-(5-amino-1H-pyrazol-1-yl)-1,3,4-thiadiazol-2-yl)-4-(2,6-dimethoxyphenyl)-3-((1-hydroxy-3-methoxypropan-2-yl)oxy)-2-oxo-2H-pyran-6-carboxamide] | 0.5 to 1 | – | –
11 | COC[C@@H](CO)Oc1c(-c2c(OC)cccc2OC)cc(C(=O)Nc2nnc(-n3nccc3N)s2)oc1=O [Compound 62B*, (R)—N-(5-(5-amino-1H-pyrazol-1-yl)-1,3,4-thiadiazol-2-yl)-4-(2,6-dimethoxyphenyl)-3-((1-hydroxy-3-methoxypropan-2-yl)oxy)-2-oxo-2H-pyran-6-carboxamide] | 0.5 to 1 | – | –
12 | COC[C@H](O)COc1c(-c2c(OC)cccc2OC)cc(C(=O)Nc2nnc(-n3nccc3N)s2)oc1=O [Compound 63A*, (S)—N-(5-(5-amino-1H-pyrazol-1-yl)-1,3,4-thiadiazol-2-yl)-4-(2,6-dimethoxyphenyl)-3-(2-hydroxy-3-methoxypropoxy)-2-oxo-2H-pyran-6-carboxamide] | 0.5 to 1 | – | –
13 | COc1cccc(OC)c1-c1cc(C(=O)Nc2nnc(-n3nccc3N)s2)oc(=O)c1OCCN1CC2(CSC2)C1 [Compound 65, 3-(2-(2-thia-6-azaspiro[3.3]heptan-6-yl)ethoxy)-N-(5-(5-amino-1H-pyrazol-1-yl)-1,3,4-thiadiazol-2-yl)-4-(2,6-dimethoxyphenyl)-2-oxo-2H-pyran-6-carboxamide] | 0.5 to 1 | – | –
14 | COCCOc1c(-c2c(C#N)ccnc2OC)cc(C(=O)Nc2nnc(-n3nccc3N)s2)oc1=O [Compound 66, N-(5-(5-amino-1H-pyrazol-1-yl)-1,3,4-thiadiazol-2-yl)-4-(4-cyano-2-methoxypyridin-3-yl)-3-(2-methoxyethoxy)-2-oxo-2H-pyran-6-carboxamide] | 0.5 to 1 | – | –
15 | COCCOc1c(-c2c(OC)cccc2OCCC#N)cc(C(=O)Nc2nnc(-n3nccc3N)s2)oc1=O [Compound 67, N-(5-(5-amino-1H-pyrazol-1-yl)-1,3,4-thiadiazol-2-yl)-4-(2-(2-cyanoethoxy)-6-methoxyphenyl)-3-(2-methoxyethoxy)-2-oxo-2H-pyran-6-carboxamide] | 1 to 5 | – | –
16 | COc1cccc(OC)c1-c1cc(C(=O)Nc2nnc(-n3nccc3N)s2)oc(=O)c1OCCN1CCCCC1 [Compound 69, N-(5-(5-amino-1H-pyrazol-1-yl)-1,3,4-thiadiazol-2-yl)-4-(2,6-dimethoxyphenyl)-2-oxo-3-(2-(piperidin-1-yl)ethoxy)-2H-pyran-6-carboxamide] | 5 to 20 | – | –
17 | COCCOc1c(-c2ncccc2OC2CC2)cc(C(=O)Nc2nnc(-n3nccc3N)s2)oc1=O [Compound 70, N-(5-(5-amino-1H-pyrazol-1-yl)-1,3,4-thiadiazol-2-yl)-4-(3-cyclopropoxypyridin-2-yl)-3-(2-methoxyethoxy)-2-oxo-2H-pyran-6-carboxamide] | 0.5 to 1 | – | –
18 | COc1cccc(OC)c1-c1cc(C(=O)Nc2nnc(-n3nccc3N)s2)oc(=O)c1OCCN1CC2(CCS2)C1 [Compound 72, 3-(2-(1-thia-6-azaspiro[3.3]heptan-6-yl)ethoxy)-N-(5-(5-amino-1H-pyrazol-1-yl)-1,3,4-thiadiazol-2-yl)-4-(2,6-dimethoxyphenyl)-2-oxo-2H-pyran-6-carboxamide] | 0.5 to 1 | – | –

Next, values leading:

Row | IC50 [1] [nM] | cGAS potency relative to Compound 1 | IC50 [2] [nM] | Compound
19 | < 0.5 | improved cGAS potency | < 0.5 | COCCOc1c(-c2c(O)cccc2Cl)cc(C(=O)Nc2nnc(-n3nccc3N)s2)oc1=O [Compound 41, N-(5-(5-amino-1H-pyrazol-1-yl)-1,3,4-thiadiazol-2-yl)-4-(2-chloro-6-hydroxyphenyl)-3-(2-methoxyethoxy)-2-oxo-2H-pyran-6-carboxamide]
20 | 0.5 to 1 | – | – | COc1cccc(OC)c1-c1cc(C(=O)Nc2nnc(-n3nccc3N)s2)oc(=O)c1OCC1(OC)CC1 [Compound 42, N-(5-(5-amino-1H-pyrazol-1-yl)-1,3,4-thiadiazol-2-yl)-4-(2,6-dimethoxyphenyl)-3-((1-methoxycyclopropyl)methoxy)-2-oxo-2H-pyran-6-carboxamide]
21 | < 0.5 | improved cGAS potency | < 0.5 | COc1cccc(OC)c1-c1cc(C(=O)Nc2nnc(-n3nccc3N)s2)oc(=O)c1OCCN1CCSCC1 [Compound 44, N-(5-(5-amino-1H-pyrazol-1-yl)-1,3,4-thiadiazol-2-yl)-4-(2,6-dimethoxyphenyl)-2-oxo-3-(2-thiomorpholinoethoxy)-2H-pyran-6-carboxamide]
22 | < 0.5 | – | < 0.5 | COCCOc1c(-c2c(Cl)cccc2C#N)cc(C(=O)Nc2nnc(-n3nccc3N)s2)oc1=O [Compound 45, N-(5-(5-amino-1H-pyrazol-1-yl)-1,3,4-thiadiazol-2-yl)-4-(2-chloro-6-cyanophenyl)-3-(2-methoxyethoxy)-2-oxo-2H-pyran-6-carboxamide]
23 | 0.5 to 1 | – | – | COc1cccc(OC)c1-c1cc(C(=O)Nc2nnc(-n3nccc3N)s2)oc(=O)c1OC[C@@H](C)O [Compound 46A, (R)—N-(5-(5-amino-1H-pyrazol-1-yl)-1,3,4-thiadiazol-2-yl)-4-(2,6-dimethoxyphenyl)-3-(2-hydroxypropoxy)-2-oxo-2H-pyran-6-carboxamide]
24 | < 0.5 | – | – | COc1cccc(OC)c1-c1cc(C(=O)Nc2nnc(-n3nccc3N)s2)oc(=O)c1OC[C@H](C)O [Compound 46B, (S)—N-(5-(5-amino-1H-pyrazol-1-yl)-1,3,4-thiadiazol-2-yl)-4-(2,6-dimethoxyphenyl)-3-(2-hydroxypropoxy)-2-oxo-2H-pyran-6-carboxamide]
25 | < 0.5 | – | – | COC[C@@H](C)Oc1c(-c2c(OC)cccc2OC)cc(C(=O)Nc2nnc(-n3nccc3N)s2)oc1=O [Compound 47B, (R)—N-(5-(5-amino-1H-pyrazol-1-yl)-1,3,4-thiadiazol-2-yl)-4-(2,6-dimethoxyphenyl)-3-((1-methoxypropan-2-yl)oxy)-2-oxo-2H-pyran-6-carboxamide]
26 | < 0.5 | – | – | COc1cccc(OC)c1-c1cc(C(=O)Nc2nnc(-n3nccc3N)s2)oc(=O)c1OC[C@H](C)OC [Compound 53, (S)-N-(5-(5-amino-1H-pyrazol-1-yl)-1,3,4-thiadiazol-2-yl)-4-(2,6-dimethoxyphenyl)-3-(2-methoxypropoxy)-2-oxo-2H-pyran-6-carboxamide]
27 | < 0.5 | – | – | COc1cccc(OC)c1-c1cc(C(=O)Nc2nnc(-n3nccc3N)s2)oc(=O)c1OCCOCCO [Compound 68, N-(5-(5-amino-1H-pyrazol-1-yl)-1,3,4-thiadiazol-2-yl)-4-(2,6-dimethoxyphenyl)-3-(2-(2-hydroxyethoxy)ethoxy)-2-oxo-2H-pyran-6-carboxamide]
